Values joined by “and” are separate entries in the source; they are usually repeats but may differ in a detail not shown here. Equal entries are not always repeated. “Also recorded” adds a separate entry of the source.
Experiments:
[1] = test system: barnacle cyprids (Balanus amphitrite Darwin); experiment: Barnacle cyprid settlement assay and EC50 determination; format: in vivo; settings: for % of set: dishes a, b, c and Total (mean), control mean 78
Excerpt: The barnacle, Balanus amphitrite Darwin, is the most ubiquitous hard fouling organism found in all marine ecosystems, particularly in ports visited by commercial shipping. The methods used in this evaluation have been described in detail in a number of publications (Rittschof D, Clare A S, Gerhart D J, Avelin Mary, Bonavetura J (1991) Barnacle in vitro assays for biologically active substances: toxicity and settlement assays using mass cultured Balanus amphitrite amphitrite Darwin. Biofouling 6:115-122.
The barnacle adults are cultured in the laboratory and allowed to spawn naturally. The larvae are harvested and grown in artificial culture systems until they reach the cyprid stage at which time the larvae become competent to attach to surfaces. Once attached, the cyprids transform into a pinhead barnacle, thus becoming permanently attached to the surface.
The sample solution tested was a 23.2% w/w solution of Tracer in distilled water (equivalent to 10% w/w in pure spinosad or 100 mg spinosad/ml). The sample was stirred prior to making serial dilutions.
The data are summarized in the Tables 2 and 3 below along with the calculations for the EC50. […] Thereafter, there was dose dependent attachment from 10^−5 and at lower concentrations, only reaching control values at […]. The EC50 calculation via probit analysis show an EC50 of 7×10^−8 mg/ml.
Additional notes to the data below: 1. Set means the total number of cyprid larvae that have settled and attached on the surface of the petri dish. 2. Non-Set means the total number of cyprids that remain swimming in the seawater and not settled on the surface. 3. Data are expressed as the percentage of cyprids that settled on the surface. 4. Data are summarized and the mean, standard deviation (SD) and the standard error of the mean (SE) are calculated for samples. 5. Tests were conducted in replicates of three dishes per study group; each dish containing anywhere from 75 to 100 cyprids.

Dunaliella tertiolecta = experiment: Inhibition of the growth of the fouling microalgae in flask culture; format: cell-based; settings: 10-^2 to 10^−9 mg spinosad/ml; cells counted each day
Method: A water emulsion containing 23.2% w/w Tracer®=10% spinosad was used at the start of this assay. Dunaliella tertiolecta was maintained in stock cultures in 20 ml test tubes as seed cultures and maintained on seven day transfer cycle. The marine micro-algae were inoculated into 250 ml conical flasks containing 100 ml of filtered, sterilized seawater in F/2-Guillard-1975 growth medium. The initial 10% spinosad emulsion (coded Entarco 8205 10%), was further dissolved in distilled water and added at various concentrations to each algal culture for final concentrations ranging from 10-^2 mg spinosad/ml to 10^−9 mg spinosad/ml. Controls consisted of algal culture without the test solution. Each test group was comprised of 3 flasks.
The typical culture goes through four phases. Lag phase is characterized by little or no multiplication of the cells. Log phase or exponential phase is when there is a rapid increase in the rate of cell division. During the next phase, called stationary phase, the number of living cells remain constant and there is no further growth. […] The growth of the algal cells in each flask was counted each day by haemocytometer. The entire growth and decline of the culture in the presence or absence of spinosad was determined (Targett, 1988 Allelochemistry in marine organisms: Chemical fouling and antifouling strategies).

Vibrio sp (V) = experiment: Agar diffusion antimicrobial assay against marine bacteria associated with Balanus amphitrite; format: cell-based; settings: 24 hours
Method: (§1) The effect of spinosad as a bacteriostatic compound was tested against four bacterial species using standard agar diffusion techniques, as described by Avelin et al., J. Chem. Ecol., 19(10), 2155-67 (1993). The bacteria used in the test were as follows: Aeromonas sp (Ae); Alcaligenes sp (Al); Flavobacterium sp (F); and Vibrio sp (V);
(§2) The agar diffusion technique follows the original method by Acar (1980). In a sterilized petri dish 1 ml of 12 hour old nutrient broth culture, comprising of 3.7% of marine broth in distilled water, of each marine bacterial species was transferred along with 20 ml of antibiotic agar medium.
(§3) Sterilized Whatman No. 1 paper discs (6.25 mm diameter) were loaded with the test solution (2.4% w/w Tracer in distilled water) at concentrations calculated in pure spinosad ranging from 10^−1 mg/10 μl to 10^−4 mg/10 μl. Control discs were loaded with only the vehicle. After 24 hours of exposure to the test solution, the zone of inhibition, i.e. the area around the disc devoid of marine bacterial growth was measured by determining the distance from the edge of the disc to the edge of the area showing no bacterial growth (mm).

Aeromonas sp (Ae) = experiment: as above; format: cell-based; settings: isolate Ae1, 24 hours
Method: as §1, §2, §3

Flavobacterium sp (F) = experiment: as above; format: cell-based; settings: 24 hours
Method: as §1, §2, §3

Alcaligenes sp (Al) = experiment: as above; format: cell-based; settings: 24 hours
Method: as §1, §2, §3

spinosad
% of set ([1]; 0.1 mg spinosad/ml): 0% | % of set ([1]; 10−^2 mg spinosad/ml): 0% | % of set ([1]; 10−^3 mg spinosad/ml): 0% | % of set ([1]; 10−^4 mg spinosad/ml): 0% | % of set ([1]; 10−^5 mg spinosad/ml): 7% and 9% and 12% | % of set ([1]; 10−^7 mg spinosad/ml): 31% and 34% and 42% | % of set ([1]; 10−^8 mg spinosad/ml): 52% and 57% and 50% | % of set ([1]; 10−^9 mg spinosad/ml): 63% and 61% and 70% | % of set ([1]; 10−^10 mg spinosad/ml): 77% and 78% and 71% | % of set ([1]; 10−^11 mg spinosad/ml): 77% and 79% and 72% | mortality of cyprids ([1]; all concentrations tested): absence of any mortality; also recorded: no mortality seen at all concentrations tested | cyprid settlement ([1]; from 10^−1 to 10^−4 mg/ml): no cyprid settlement | mortality of cyprids ([1]; highest concentration used (0.1 mg spinosad/ml)): no mortality was observed | EC50 on the settlement of barnacle cyprids ([1]; probit analysis): 0.07 ng/mL | growth of Dunaliella tertiolecta (FIG. 1) (Dunaliella tertiolecta): significant microalgae inhibitory properties which are dose dependent | zone of inhibition (Vibrio sp (V); isolate V1, 10^−1 mg/10 μl (10000 ppm spinosad)): 8 mm | zone of inhibition (Vibrio sp (V); isolate V1, 10^−2 mg/10 μl (1000 ppm spinosad)): 5.5 mm | zone of inhibition (Vibrio sp (V); isolate V1, 10^−3 mg/10 μl (100 ppm spinosad)): 5.5 mm | zone of inhibition (Vibrio sp (V); isolate V1, 10^−4 mg/10 μl (10 ppm spinosad)): 5.5 mm | zone of inhibition (Vibrio sp (V); isolate V2, 10^−1 mg/10 μl (10000 ppm spinosad)): 8 mm | zone of inhibition (Vibrio sp (V); isolate V2, 10^−2 mg/10 μl (1000 ppm spinosad)): 7 mm | zone of inhibition (Vibrio sp (V); isolate V2, 10^−3 mg/10 μl (100 ppm spinosad)): 6 mm | zone of inhibition (Vibrio sp (V); isolate V2, 10^−4 mg/10 μl (10 ppm spinosad)): 6 mm | zone of inhibition (Aeromonas sp (Ae); 10^−1 mg/10 μl (10000 ppm spinosad)): 7.5 mm | zone of inhibition (Aeromonas sp (Ae); 10^−2 mg/10 μl (1000 ppm spinosad)): 7 mm | zone of inhibition (Aeromonas sp (Ae); 10^−3 mg/10 μl (100 ppm spinosad)): 7 mm | zone of inhibition (Aeromonas sp (Ae); 10^−4 mg/10 μl (10 ppm spinosad)): 5.5 mm | zone of inhibition (Flavobacterium sp (F); isolate F1, 10^−1 mg/10 μl (10000 ppm spinosad)): 7.5 mm | zone of inhibition (Flavobacterium sp (F); isolate F1, 10^−2 mg/10 μl (1000 ppm spinosad)): 6 mm | zone of inhibition (Flavobacterium sp (F); isolate F1, 10^−3 mg/10 μl (100 ppm spinosad)): 6 mm | zone of inhibition (Flavobacterium sp (F); isolate F1, 10^−4 mg/10 μl (10 ppm spinosad)): 6 mm | zone of inhibition (Flavobacterium sp (F); isolate F2, 10^−1 mg/10 μl (10000 ppm spinosad)): 7.5 mm | zone of inhibition (Flavobacterium sp (F); isolate F2, 10^−2 mg/10 μl (1000 ppm spinosad)): 6 mm | zone of inhibition (Flavobacterium sp (F); isolate F2, 10^−3 mg/10 μl (100 ppm spinosad)): 6 mm | zone of inhibition (Flavobacterium sp (F); isolate F2, 10^−4 mg/10 μl (10 ppm spinosad)): 6 mm | zone of inhibition (Alcaligenes sp (Al); isolate Al1, 10^−1 mg/10 μl (10000 ppm spinosad)): 8 mm | zone of inhibition (Alcaligenes sp (Al); isolate Al1, 10^−2 mg/10 μl (1000 ppm spinosad)): 6 mm | zone of inhibition (Alcaligenes sp (Al); isolate Al1, 10^−3 mg/10 μl (100 ppm spinosad)): 6 mm | zone of inhibition (Alcaligenes sp (Al); isolate Al1, 10^−4 mg/10 μl (10 ppm spinosad)): 6 mm | zone of inhibition (Alcaligenes sp (Al); isolate Al2, 10^−1 mg/10 μl (10000 ppm spinosad)): 7 mm | zone of inhibition (Alcaligenes sp (Al); isolate Al2, 10^−2 mg/10 μl (1000 ppm spinosad)): 6.5 mm | zone of inhibition (Alcaligenes sp (Al); isolate Al2, 10^−3 mg/10 μl (100 ppm spinosad)): 5.5 mm | zone of inhibition (Alcaligenes sp (Al); isolate Al2, 10^−4 mg/10 μl (10 ppm spinosad)): 5.5 mm

Reference: patent US8470381B2, “Spinosyn antifouling compositions, methods of use thereof and articles protected from attachment of biofouling organisms” (Entarco S.A., priority 2008, dated 2013)
